US6784153B1, “Methods of homing molecules to lung using membrane dipeptidase” (The Burnham Institute, priority 1998, dated 2004)
Entries after “also recorded” stand apart in the source; their conditions may differ.

Key:
[1] = tested on: primary brain cells; assay: phage binding assay on primary brain cells; parameters: species or system mice; details: in vitro
Experimental: Phage binding to primary cells was performed as follows. Briefly, Balb/c mice (Harlan Sprague Dawley) were anesthetized with 0.017 ml/g of Avertin as described in Gardner et al., Lab. Animal Sci. 45:199-204 (1995), which is incorporated herein by reference. Under deep anesthesia, mice were perfused through the heart with 10 ml Dulbecco's modified Eagle's medium (DMEM; Irvine Scientific; Santa Ana, Calif.). The lungs, kidneys and brain were then collected, minced, placed in 2 ml of DMEM containing 0.5% BSA (Intergen; Purchase, N.Y.) and 0.5 μg/ml collagenase V (SIGMA) and incubated at 37° C. for 25 minutes. Following collagenase treatment, the tissue was forced through a […] pore cell strainer (Becton Dickinson; Franklin Lake, N.J.). The filtered cells were washed once with 10 ml DMEM supplemented with 10% serum. […] To ensure an equal input of the different phage to be tested, phage were titered several times using K91Kan bacteria (Smith and Scott, supra, 1993).
For the binding reaction, 10^9 transducing units (TU) of phage were incubated with 5×10^6 cells in 1 ml DMEM supplemented with 10% serum. The binding was performed at 4° C. for 2 hours with gentle agitation. […] Plates were incubated at 37° C. overnight before the colonies were counted (transducing units, TU).

[2] = molecular target: T1, MDP (Mus musculus, UniProt P31428); assay: inhibition of MDP activity (hydrolysis of Gly-D-Phe, fluorimetric); assay type: biochemical, murine; details: Gly-D-Phe 0.5 mM; extracts from MDP-expressing COS-1 cells; listed as GFE-1
T1 construct: The amplified 1.3 kb murine MDP cDNA was digested with KpnI and XbaI, and inserted into the same sites of the pcDNA3 expression vector; expressed in transfected cells; host or cells: COS-1 cells, pcDNA3 expression vector
T1 sequence (P31428 17-384): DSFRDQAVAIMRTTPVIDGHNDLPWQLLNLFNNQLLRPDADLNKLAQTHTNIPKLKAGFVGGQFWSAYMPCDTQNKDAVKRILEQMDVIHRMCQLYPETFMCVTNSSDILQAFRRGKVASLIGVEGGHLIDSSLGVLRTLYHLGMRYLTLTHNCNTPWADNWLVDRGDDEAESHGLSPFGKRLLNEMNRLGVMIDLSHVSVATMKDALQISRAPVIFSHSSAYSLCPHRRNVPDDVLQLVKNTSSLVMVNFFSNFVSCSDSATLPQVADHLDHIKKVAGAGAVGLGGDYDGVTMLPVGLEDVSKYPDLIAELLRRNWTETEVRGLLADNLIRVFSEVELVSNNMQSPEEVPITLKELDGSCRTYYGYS
Experimental: […] […] Fluorescence was measured using an fmax fluorescence microplate reader from Molecular Devices (Sunnyvale, Calif.).
Phage binding to COS-1 cells transfected with MDP was determined as follows. Briefly, 10^7 COS-1 cells were transfected with 10 μg of either the MDP expression vector or the vector alone. After 48 hours, cells were scraped gently from the dish, washed once, and subjected to the phage binding assay or membrane dipeptidase activity assay described above. For the phage binding assay, 5×10^6 cells and 10^10 transducing units (TU) of phage input were used. For measurement of membrane dipeptidase activity, 10^6 cells were lysed in 100 μl of PBS/octylglycoside without protease inhibitors. A 10 μl aliquot of the extract was used to measure MDP activity.
Fluorimetric detection of D-Phe was performed as described above.

[3] = tested on: C8161 human melanoma cells; assay: experimental lung metastasis of C8161 human melanoma cells; assay type: in vivo, mice; details: 10^5 C8161 cells coadministered with 250 μg peptide, tail vein; five weeks after injection; listed as GFE-1
Experimental: Experimental lung metastasis was induced in mice using C8161 human melanoma cells essentially as described in Arap et al., Science 279:377-380 (1998) and Pasqualini et al., Nature Med. 11:1197-1203, each of which is incorporated herein by reference. Briefly, C8161 cells were cultured to 75% confluence and then collected with 2.5 mM EDTA/PBS. The C8161 cancer cells were injected into the tail vein of female nude BALB/c mice (two months old) at a concentration of 10^5 cells per animal. Two sets of five mice were injected with the cells alone; cells with 250 μg control CARAC peptide (SEQ ID NO: 443) or cells with 250 μg GFE-1 peptide (SEQ ID NO: 1). Each injection was in a total volume of 200 μl.
Mice were sacrificed five weeks after injection, and the lungs collected and weighed.

[4] = tested on: rat lung blood vessels; assay: targeting of rat lung blood vessels by injected phage; assay type: in vivo; details: phage injected in the circulation
[5] = tested on: C8161 human melanoma cells; details: cells and peptide mixture cultured overnight; data not shown

## CGFECVRQCPERC
[1]
  phage binding to primary brain cells: no specific binding
[2]
  inhibition of hydrolysis of Gly-D-Phe by MDP: inhibits hydrolysis of the Gly-D-Phe substrate in a dose-dependent manner; also recorded: inhibited hydrolysis of the Gly-D-Phe substrate (0.5 mM) in a dose-dependent manner; also recorded: inhibition of MDP activity
[3]
  lung metastasis (lung weight): inhibit experimental lung metastasis; also recorded: significantly less; also recorded: inhibits lung metastasis of human melanoma cells
[4]
  targeting of rat lung blood vessels: selectively target rat lung blood vessels
[5]
  toxicity to the melanoma cells: Neither the GFE-1 (SEQ ID NO: 1) or CARAC (SEQ ID NO: 443) peptides exhibited toxicity
